Values joined by “and” are separate entries in the source; they are usually repeats but may differ in a detail not shown here. Equal entries are not always repeated. Where two headings read alike, the source gives them in different places.

The text below walks through data of patent US20150203498A1, “INHIBITORS OF PHOSPHODIESTERASE 10 ENZYME” (Janssen Pharmaceutica NV, priority 2012, published 2015).

The target of one data set is T1, rPDE10A2 (Rattus norvegicus, UniProt Q9QYJ6).
T1 construct: made in house; host or cells: Sf9 insect cells (baculovirus)
T1 sequence (Q9QYJ6 1-794): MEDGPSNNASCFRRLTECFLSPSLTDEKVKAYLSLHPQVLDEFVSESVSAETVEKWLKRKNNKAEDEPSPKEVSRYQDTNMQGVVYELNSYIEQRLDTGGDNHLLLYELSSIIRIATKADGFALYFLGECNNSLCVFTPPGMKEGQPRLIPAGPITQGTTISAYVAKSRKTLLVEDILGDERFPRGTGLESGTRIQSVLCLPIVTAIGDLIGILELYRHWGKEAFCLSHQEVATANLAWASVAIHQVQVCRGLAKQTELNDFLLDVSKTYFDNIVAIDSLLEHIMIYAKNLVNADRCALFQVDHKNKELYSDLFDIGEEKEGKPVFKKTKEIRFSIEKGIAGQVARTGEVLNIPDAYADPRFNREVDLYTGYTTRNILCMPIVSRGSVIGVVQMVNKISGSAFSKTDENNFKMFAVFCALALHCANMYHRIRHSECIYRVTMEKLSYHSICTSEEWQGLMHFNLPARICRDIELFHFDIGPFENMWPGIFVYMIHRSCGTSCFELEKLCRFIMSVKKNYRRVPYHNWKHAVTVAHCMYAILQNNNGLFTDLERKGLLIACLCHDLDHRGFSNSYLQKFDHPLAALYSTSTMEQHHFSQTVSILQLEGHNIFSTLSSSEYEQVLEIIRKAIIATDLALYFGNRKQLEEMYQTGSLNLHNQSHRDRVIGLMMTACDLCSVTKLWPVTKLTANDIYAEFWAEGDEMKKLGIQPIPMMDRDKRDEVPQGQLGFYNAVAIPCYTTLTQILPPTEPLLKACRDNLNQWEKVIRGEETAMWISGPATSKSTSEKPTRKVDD
Description: In vitro assay PDE10A, rat recombinant enzyme (SPA, 3H-cAMP). Particulars: -log IC50 expressed in mol/L; 60 nM cAMP; read-out: PDE10A2 pIC50 - rat enzyme (converted). It is filed as biochemical. On the procedure:
(§1) Human or rat recombinant PDE10A (hPDE10A2 or rPDE10A2) was expressed in Sf9 cells using a recombinant hPDE10A or rPDE10A baculovirus construct. Cells were harvested after 48 h of infection and the hPDE10A or rPDE10A protein was purified by metal chelate chromatography on Ni-sepharose 6FF. Tested compounds were dissolved and diluted in 100% DMSO to a concentration 100 fold of the final concentration in the assay. Compound dilutions (0.4 μl) were added in 384 well plates to 20 μl of incubation buffer (50 mM Tris pH 7.8, 8.3 mM MgCl2, 1.7 mM EGTA). 10 μl of hPDE10A or rPDE10A enzyme in incubation buffer was added and the reaction was started by addition of 10 μl substrate to a final concentration of 60 nM cAMP and 0.008 μCi ^3H-cAMP. The reaction was incubated for 60 min. at RT. After incubation, the reaction was stopped with 20 μl of stop solution consisting of 17.8 mg/ml PDE SPA (scintillation proximity assay) beads. After sedimentation of the beads during 30 min. the radioactivity was measured in a Perkin Elmer Topcount scintillation counter and results were expressed as cpm. For blanc values the enzyme was omitted from the reaction and replaced by incubation buffer. Control values were obtained by addition of a final concentration of 1% DMSO instead of compound. A best fit curve was fitted by a minimum sum of squares method to the plot of % of control value substracted with blanc value versus compound concentration and the half maximal inhibitory concentration (IC50) value was derived from this curve.

The subject of data set [1] is apomorphine-induced stereotypy. Put plainly: Apomorphine-induced stereotypy in rats (APO). The format is in vivo, rat. Particulars: Rattus norvegicus, iv, apomorphine 1.0 mg/kg i.v., 1 hour pre-treatment with test compound, dose at which 50% of animals show the effect. On the procedure:
Apomorphine (1.0 mg/kg, i.v.)-induced stereotypy (compulsive sniffing, licking, chewing) was scored every 5 min. over the first hour after injection of apomorphine, following a 1 hour interval pre-treatment with the test compound. The score system was: (3) pronounced, (2) moderate, (1) slight, and (0) absent. Criteria for drug-induced inhibition of stereotypy: fewer than 6 scores of 3 (0.16% false positives), fewer than 6 scores of 2 (0.0% false positives), or fewer than 7 scores of 1 (0.81% false positives).

For the next data set, the target named is T2, hPDE10A2 (Homo sapiens, UniProt Q9Y233).
T2 construct: made in house; host or cells: Sf9 insect cells (baculovirus)
Description: In vitro assay PDE10A, human recombinant enzyme (SPA, 3H-cAMP). The format is biochemical. Particulars: -log IC50 expressed in mol/L; 60 nM cAMP; read-out: PDE10A2 pIC50 - human enzyme (converted). On the procedure: as §1

A short description of data set [2]: Plasma protein binding by equilibrium dialysis. It is filed as in vitro ADME, human. Particulars: male, human, plasma, pH 7.17, human plasma. On the procedure: (§2) The plasma protein binding and blood distribution was investigated in healthy human subjects. Fresh blood was collected and centrifugated (approximately 1700 g for 10 min, room temperature, Hettich Rotixa AP centrifuge). The experiment was started within 4 hours after blood collection.
(§3) Individual blank plasma samples from three healthy male subjects, tested in duplicate, were fortified with compound la or compound lb at different concentrations (see Table 5). Plasma samples were spiked with 10 μl spike solution per ml of sample (1% ethanol (v/v)).
(§4) Fortified plasma was subjected to equilibrium dialysis (ED), for 4 h against a 0.067 M phosphate buffer, pH 7.17 at 37° C. in a Dianorm system with identical macro-1 Teflon cells and Spectra/Por® RC 2 dialysis membranes (MW cut-off 12-14 kDa). After dialysis, the contents of the two compartments of the dialysis cells were collected separately. The buffer samples were diluted with 1 mL of 5% Bovine Serum Albumin in a Phosphate buffer 0.05M, pH 7.5.
(§5) The plasma samples (before and after equilibrium dialysis) and buffer samples were analysed for compound la or compound lb using a qualified chiral LC-MS/MS assay on a API4000 mass spectrometer (Applied Biosystems).
(§6) The fraction of the unbound test compound (fu) was calculated as the ratio of the unbound concentration (Cu) in the buffer compartment to the total concentration (CED) in the protein compartment of the dialysis cells. The percentage of the free test compound was calculated as […]
On the technique in general: Equilibrium dialysis compares concentrations on both sides of a semipermeable membrane.

In the next data set the test system is plasma proteins. Put plainly: Plasma protein binding by equilibrium dialysis. The format is in vitro ADME, human. As to conditions: human plasma; for Free fraction, Average per subject: average of duplicate per subject; for Free fraction: single determinations, subjects 1-3 in duplicate, equilibrium dialysis 4 h, 37° C. On the procedure:
as §2, §3, §4, §5, §6

The mark [3] stands for this setting: average of duplicate per subject, read-out: Free fraction, Average per subject.
Where [4] appears, read: single determinations, subjects 1-3 in duplicate, equilibrium dialysis 4 h, 37° C., read-out: Free fraction.

T2 sequence (Q9Y233 267-1055): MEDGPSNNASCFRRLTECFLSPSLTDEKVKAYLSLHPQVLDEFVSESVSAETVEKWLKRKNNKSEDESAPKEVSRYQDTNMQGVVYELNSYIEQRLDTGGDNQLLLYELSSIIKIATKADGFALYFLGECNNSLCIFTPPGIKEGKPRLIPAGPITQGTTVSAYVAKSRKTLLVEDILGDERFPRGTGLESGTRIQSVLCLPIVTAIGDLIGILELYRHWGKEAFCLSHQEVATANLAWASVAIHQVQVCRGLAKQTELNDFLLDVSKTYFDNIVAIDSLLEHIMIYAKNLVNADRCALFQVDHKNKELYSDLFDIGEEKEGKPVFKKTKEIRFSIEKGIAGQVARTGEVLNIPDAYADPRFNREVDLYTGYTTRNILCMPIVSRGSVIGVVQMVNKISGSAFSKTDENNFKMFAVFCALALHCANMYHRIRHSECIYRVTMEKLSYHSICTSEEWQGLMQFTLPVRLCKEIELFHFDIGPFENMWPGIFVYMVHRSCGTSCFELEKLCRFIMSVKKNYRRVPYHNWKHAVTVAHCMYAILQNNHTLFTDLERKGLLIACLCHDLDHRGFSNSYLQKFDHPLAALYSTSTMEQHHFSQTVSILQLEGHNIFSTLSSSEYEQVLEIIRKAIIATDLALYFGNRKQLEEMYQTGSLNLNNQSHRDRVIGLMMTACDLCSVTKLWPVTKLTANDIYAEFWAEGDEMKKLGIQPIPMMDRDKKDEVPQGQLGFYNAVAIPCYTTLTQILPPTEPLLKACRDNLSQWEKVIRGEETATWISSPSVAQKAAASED

The term ED50 denotes the dose at which the effect has come halfway, by size or by number of responders. By melting point is commonly meant the temperature, or range, at which the solid turns liquid. `COCC(O)c1ccc(-c2c(C)nc3c(N4CCOCC4)ccnn23)cn1` (single isomer, unassigned) [Compound 1a] yielded a melting point of 134.9 °C. The IC50 on rPDE10A2 was 47.9 nM. Moreover, the ED50 in data set [1] came to 1.2 mg/kg. The IC50 on hPDE10A2 was 75.9 nM. In addition, in data set [2] (setting [3]), the fraction unbound at 4 h, 0.1 μg/ml is 0.481 and the fraction unbound at 4 h, 13 μg/ml turned out to be 0.448. Further, in data set [2] (setting [4]), the fraction unbound at 4 h, 0.1 μg/ml worked out at 0.468 and the fraction unbound at 4 h, 13 μg/ml is 0.446. Further, in data set [2] (0.1 and 13 μg/ml pooled, three subjects in duplicate, read-out: Free fraction, Average (S.D.) (n = 12)), the fraction unbound at 4 h came out at 0.469. Also, in the data set with plasma proteins (0.1 μg/ml), the “Average percentage of free compound in plasma” value stood at 48.3%; the “Free fraction, Average per subject” value was 48.5% and 48.3%; the Free fraction was 50.1% and 47.6% and 48.9% and 47.3%. Also, in the data set on plasma proteins (13 μg/ml), the “Average percentage of free compound in plasma” value was 45.5%; the “Free fraction, Average per subject” value is 45.4% and 46.2%; the Free fraction was 46.1% and 46.5% and 46.0% and 43.9% and 45.6%. Moreover, the “Concentration dependency in the plasma protein binding” value in the data set with plasma proteins (within the concentration range tested) is “No relevant concentration dependency”.
